Source: ChEMBL document CHEMBL4002640, “Discovery of MK-1832, a Kv1.5 inhibitor with improved selectivity and pharmacokinetics” (Bioorg Med Chem Lett, 2017)
pIC50: −log10 of the molar value.

Legend:
KCNQ1/KCNE1 (IKs) = KCNQ1/KCNE1 (IKs) (Homo sapiens, UniProt P15382+P51787); assay: Inhibition of human KCNQ1/KCNE1 expressed in HEK293 cells assessed as reduction in slowly activating delayed rectifier cardiac potassium current at 10 uM by patch clamp electrophysiology method; type: cell-based; conditions: HEK293 cells expressing human KCNQ1/KCNE1
[1] = target: T1, Voltage-gated inwardly rectifying potassium channel KCNH2 (Homo sapiens, UniProt Q12809); assay: Displacement of [3H]-MK499 from human ERG IKr channel expressed in HEK293 cell membranes
Homo sapiens = species on record: Homo sapiens; assay: Substrate activity at human P-gp assessed as efflux ratio
[2] = target: T2, Potassium voltage-gated channel subfamily A member 5 (Homo sapiens, UniProt P22460); assay: Inhibition of Kv1.5 (unknown origin)
[3] = Drug metabolism in human hepatocytes assessed as oxidation of the A/B ring nitrogens up to 3 hrs by mass spectrometry; type: ADME, cell-based, Hepatocyte
[4] = Drug metabolism in human hepatocytes assessed as oxidation of the ethane at the center up to 3 hrs by mass spectrometry; type: ADME, cell-based, Hepatocyte
[5] = Metabolic stability in human hepatocytes up to 3 hrs by mass spectrometry; type: ADME, cell-based, Hepatocyte
[6] = target: T2, Potassium voltage-gated channel subfamily A member 5; assay: Inhibition of Kv1.5 mediated ultra-rapid delayed rectifier current Ikur in human atrial myocytes by voltage-patch clamp electrophysiology method; type: cell-based
[7] = target: Voltage-gated potassium channel, IKs; KCNQ1(Kv7.1)/KCNE1(MinK) (Homo sapiens, UniProt P15382+P51787); assay: Inhibition of human KCNQ1/KCNE1 expressed in HEK293 cells assessed as reduction in slowly activating delayed rectifier cardiac potassium current by patch clamp electrophysiology method; type: cell-based
[8] = target: T1, Voltage-gated inwardly rectifying potassium channel KCNH2; assay: Inhibition of human ERG expressed in CHOK1 cells assessed as reduction in rapidly activating delayed rectifier cardiac potassium current by whole-cell voltage-patch clamp assay; type: cell-based
[9] = target: T3, A-type voltage-gated potassium channel KCND3 (Homo sapiens, UniProt Q9UK17); assay: Inhibition of Kv4.3 (unknown origin) assessed as reduction in transient outward potassium current by high throughput clamp method
T3 sequence (Q9UK17 whole entry): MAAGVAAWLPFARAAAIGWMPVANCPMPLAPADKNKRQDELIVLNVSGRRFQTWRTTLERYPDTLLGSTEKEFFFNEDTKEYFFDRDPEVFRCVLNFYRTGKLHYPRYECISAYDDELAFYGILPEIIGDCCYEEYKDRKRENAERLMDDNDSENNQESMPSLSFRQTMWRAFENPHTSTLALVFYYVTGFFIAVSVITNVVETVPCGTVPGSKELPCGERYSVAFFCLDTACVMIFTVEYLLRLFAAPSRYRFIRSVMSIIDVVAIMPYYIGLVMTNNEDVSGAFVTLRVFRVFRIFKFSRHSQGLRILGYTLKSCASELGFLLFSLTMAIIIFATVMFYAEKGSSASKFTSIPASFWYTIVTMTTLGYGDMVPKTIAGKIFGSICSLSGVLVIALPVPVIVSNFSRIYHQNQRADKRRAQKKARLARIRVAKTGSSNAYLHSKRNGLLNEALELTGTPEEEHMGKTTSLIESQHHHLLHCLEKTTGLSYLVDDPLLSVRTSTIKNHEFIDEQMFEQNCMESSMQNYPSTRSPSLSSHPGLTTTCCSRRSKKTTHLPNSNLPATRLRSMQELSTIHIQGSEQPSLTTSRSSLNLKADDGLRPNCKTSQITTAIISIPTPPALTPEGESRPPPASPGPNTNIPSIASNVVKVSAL

[10] = target: Sodium channel protein type 5 subunit alpha (Homo sapiens, UniProt Q14524); assay: Inhibition of SCN5a (unknown origin) assessed as reduction in sodium current at 10 uM by voltage/ion probe reader method
Canis familiaris [11] = assay: Anti-atrial fibrillation activity in iv dosed anesthetized Mongrel dog assessed as increase in atrial refractory period at 400 ms of basic cycle length administered as 60 mins infusion measured up to 60 mins by electrophysiology method; type: functional, Canis lupus familiaris
Canis familiaris [12] = assay: Effect on ventricular refractory period in iv dosed anesthetized Mongrel dog assessed as threshold change in ventricular refractory period at 400 ms of basic cycle length administered as 60 mins infusion measured up to 60 mins by electrophysiology method; type: ADME, organism-based, Canis lupus familiaris; conditions: in vivo, 1 h
[13] = Selectivity index, ratio of IC50 for human KCNQ1/KCNE1 IKs channel expressed in HEK293 cells to IC50 for Kv1.5 IKur channel in human atrial myocytes
Canis familiaris [14] = assay: Selectivity index, ratio of compound effect for anti-atrial fibrillation activity in iv dosed anesthetized Mongrel dog assessed as increase in atrial refractory period to compound effect on ventricular refractory period in iv dosed anesthetized Mongrel dog; set-up: species or system Canis lupus familiaris

KCNQ1/KCNE1 (IKs), sequence (P51787 whole entry): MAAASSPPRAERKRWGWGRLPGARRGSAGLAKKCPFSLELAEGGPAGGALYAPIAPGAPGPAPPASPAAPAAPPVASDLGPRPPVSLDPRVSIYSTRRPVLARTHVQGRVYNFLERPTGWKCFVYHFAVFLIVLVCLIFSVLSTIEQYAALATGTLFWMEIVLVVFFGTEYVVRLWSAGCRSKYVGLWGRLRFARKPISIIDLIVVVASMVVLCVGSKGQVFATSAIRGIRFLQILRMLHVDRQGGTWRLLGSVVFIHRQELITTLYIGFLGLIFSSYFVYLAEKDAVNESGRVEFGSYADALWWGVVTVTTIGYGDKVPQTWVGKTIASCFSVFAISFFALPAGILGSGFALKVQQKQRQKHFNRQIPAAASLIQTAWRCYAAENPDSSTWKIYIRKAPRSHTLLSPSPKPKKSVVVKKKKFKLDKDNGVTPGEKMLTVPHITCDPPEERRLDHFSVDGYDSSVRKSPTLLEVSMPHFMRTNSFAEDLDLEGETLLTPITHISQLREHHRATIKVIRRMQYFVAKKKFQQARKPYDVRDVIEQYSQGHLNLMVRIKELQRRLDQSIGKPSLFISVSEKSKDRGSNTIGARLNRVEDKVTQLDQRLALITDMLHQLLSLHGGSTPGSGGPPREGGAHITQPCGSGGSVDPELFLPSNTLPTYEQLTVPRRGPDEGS
T1 sequence (Q12809 whole entry): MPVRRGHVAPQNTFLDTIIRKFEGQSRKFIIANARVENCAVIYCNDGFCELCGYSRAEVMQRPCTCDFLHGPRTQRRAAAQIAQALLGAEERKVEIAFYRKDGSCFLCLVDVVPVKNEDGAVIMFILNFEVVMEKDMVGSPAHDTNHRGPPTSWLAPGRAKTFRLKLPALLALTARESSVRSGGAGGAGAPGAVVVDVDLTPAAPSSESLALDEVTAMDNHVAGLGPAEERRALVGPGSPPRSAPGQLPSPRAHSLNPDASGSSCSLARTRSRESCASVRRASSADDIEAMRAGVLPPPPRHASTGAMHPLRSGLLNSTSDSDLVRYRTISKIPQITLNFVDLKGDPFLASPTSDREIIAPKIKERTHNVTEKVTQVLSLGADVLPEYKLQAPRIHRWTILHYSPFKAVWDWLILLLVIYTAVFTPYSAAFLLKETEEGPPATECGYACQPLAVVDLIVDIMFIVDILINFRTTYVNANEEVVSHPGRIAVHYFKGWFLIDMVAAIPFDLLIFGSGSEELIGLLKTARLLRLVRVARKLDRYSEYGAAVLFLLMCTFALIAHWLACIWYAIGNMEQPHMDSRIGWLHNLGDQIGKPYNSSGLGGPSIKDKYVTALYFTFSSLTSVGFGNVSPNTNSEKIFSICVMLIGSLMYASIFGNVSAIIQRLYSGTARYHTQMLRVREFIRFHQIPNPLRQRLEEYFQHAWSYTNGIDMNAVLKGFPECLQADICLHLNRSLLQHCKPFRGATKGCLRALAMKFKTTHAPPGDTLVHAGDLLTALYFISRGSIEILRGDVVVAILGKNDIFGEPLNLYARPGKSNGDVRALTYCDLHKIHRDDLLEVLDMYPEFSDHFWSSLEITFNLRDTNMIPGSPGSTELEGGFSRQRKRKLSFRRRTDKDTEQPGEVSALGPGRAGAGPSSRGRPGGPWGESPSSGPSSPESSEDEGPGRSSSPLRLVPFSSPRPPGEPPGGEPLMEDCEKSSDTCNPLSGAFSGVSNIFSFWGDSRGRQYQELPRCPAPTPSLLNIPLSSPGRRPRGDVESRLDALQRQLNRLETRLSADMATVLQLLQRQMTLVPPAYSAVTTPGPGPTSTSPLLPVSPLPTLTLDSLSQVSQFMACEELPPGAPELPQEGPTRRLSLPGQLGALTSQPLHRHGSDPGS
T2 sequence (P22460 whole entry): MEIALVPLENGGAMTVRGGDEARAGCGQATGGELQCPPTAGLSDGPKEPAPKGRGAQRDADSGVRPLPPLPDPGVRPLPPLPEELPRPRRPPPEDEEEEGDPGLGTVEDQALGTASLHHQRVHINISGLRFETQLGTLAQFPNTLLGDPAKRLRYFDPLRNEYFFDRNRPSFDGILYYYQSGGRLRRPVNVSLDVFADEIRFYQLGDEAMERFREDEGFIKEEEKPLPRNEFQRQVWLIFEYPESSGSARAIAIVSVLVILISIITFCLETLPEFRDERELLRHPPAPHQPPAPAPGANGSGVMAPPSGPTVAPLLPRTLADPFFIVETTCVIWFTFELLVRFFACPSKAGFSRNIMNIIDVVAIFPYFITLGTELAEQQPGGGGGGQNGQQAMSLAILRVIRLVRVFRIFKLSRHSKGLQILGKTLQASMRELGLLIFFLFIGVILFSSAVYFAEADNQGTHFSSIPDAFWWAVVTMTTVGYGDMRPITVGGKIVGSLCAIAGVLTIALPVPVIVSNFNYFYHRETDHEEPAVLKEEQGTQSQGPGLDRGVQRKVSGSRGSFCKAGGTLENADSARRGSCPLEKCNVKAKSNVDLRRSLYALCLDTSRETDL
Voltage-gated potassium channel, IKs; KCNQ1(Kv7.1)/KCNE1(MinK), sequence (P51787 whole entry): as the sequence (P51787 whole entry) above

Compound	inhibition at 10 µM (KCNQ1/KCNE1 (IKs))	pIC50 [2]	pIC50 [1]	further results
CN(C)C(=O)c1cccc(-c2ccc(F)cc2CC(c2cccnc2)c2cccnc2)c1				Drug metabolism [3]: Metabolite_Detected; Drug metabolism [4]: Metabolite_Detected; Stability [5]: Unstable
Fc1ccc(CC(c2cccnc2)c2cccnc2)c(C2CC2)c1		< 5.00		
Nc1cccc(C(c2cccnc2)C(O)c2cccnc2-c2cc(Cl)cc(Cl)c2)n1 (mixture of isomers)	20%	6.82	< 4.52	Ratio (Homo sapiens): 3.4
N#Cc1cccc(-c2cc(F)ccc2CC(c2cccnc2)c2cccnc2)c1	47%	6.87	4.99	Ratio (Homo sapiens): 0.9
OC(Cc1cccnc1-c1cccc(C(F)(F)F)c1)(c1cccnc1F)c1cccnc1F	16%	6.71		Stability [5]: Stable
c1cncc(-c2ccccc2CC(c2cccnc2)c2cccnc2)c1	22%	7.19		
CN(C)C(=O)c1cccc(-c2ncccc2CC(c2ccnc(N)n2)c2cccnc2F)c1 (racemic)	61%	6.79	< 4.52	
CN(c1cccnc1)c1ncccc1CC(c1cccnc1)c1cccnc1	5%	7.05	< 4.52	
CS(=O)(=O)Nc1cccc([C@H](c2ccc(F)cc2)C(c2cccnc2)c2cccnc2)n1		8.05	< 4.52	pIC50 [6]: 7.96; pIC50 [7]: 6.10; pIC50 [8]: 3.96; pIC50 [9]: 5.64; inhibition (INH) [10]: Not Active; Stability [5]: Stable; EC10 (Canis familiaris [11]): 31 nM; Activity (Canis familiaris [12]): 6 to 7 µM; Ratio IC50 [13]: 70; Selectivity Index (Canis familiaris [14]): 210
OC(c1cccnc1-c1cccc(Cl)c1)C(c1cccnc1)c1cccnc1 (racemic)	4.1%	6.55	< 4.52	
c1ccc(-c2ccccc2CC(c2cccnc2)c2cccnc2)cc1		5.86	5.12	
CS(=O)(=O)Nc1cccc(-c2cc(F)ccc2CC(c2cccnc2)c2cccnc2)n1		5.80		
Fc1ccc(CC(c2cccnc2)c2cccnc2)c(-c2cccc(C(F)(F)F)c2)c1		5.89	5.65	
Fc1ccc(CC(c2cccnc2)c2cccnc2)c(-c2cn[nH]c2)c1		< 5.00		
Clc1ccccc1-c1ncccc1CC(c1cccnc1)c1cccnc1	24%	7.64	< 4.52	
Nc1cccc(C(Cc2cccnc2-c2cccc(C(F)(F)F)c2)c2cccnc2)n1 (stereo unspecified)	42%	7.25		
CN(C)C(=O)c1cccc(-c2ccccc2CC(c2cccnc2)c2cccnc2)c1	26%	7.19		
COc1cccc(-c2ncccc2CC(c2cccnc2)c2cccnc2)c1	15%	7.39		
OC(Cc1cccnc1-c1cc(Cl)cc(Cl)c1)(c1cccnc1)c1cccnc1	10%	7.08	< 4.52	Ratio (Homo sapiens): 6.8

Now from value to compound, other results behind:

inhibition at 10 µM (KCNQ1/KCNE1 (IKs))	pIC50 [2]	Compound	pIC50 [1]	further results
-0.5%		OC(c1cccnc1-c1ccccc1Cl)C(c1cccnc1)c1cccnc1 (stereo unspecified)	< 4.52	Ratio (Homo sapiens): 28
36%	7.52	Clc1cccc(-c2ncccc2CC(c2cccnc2)c2cccnc2)c1	< 4.52	
	5.54	N#Cc1cccc(-c2cccc(Cl)c2CC(c2cccnc2)c2cccnc2)c1	5.59	
0.1%	6.83	CC(=O)NC(c1ccccc1-c1cc(Cl)cc(Cl)c1)C(c1cccnc1)c1cccnc1 (stereo unspecified)	< 4.52	Ratio (Homo sapiens): 51
-14%	6.54	O[C@@H](c1cccnc1-c1cccc(C(F)(F)F)c1)C(c1cccnc1)c1cccnc1	< 4.52	Ratio (Homo sapiens): 7
16%	6.56	OC(c1cccnc1-c1cccc(Cl)c1)C(c1cccnc1)c1ncco1 (mixture of isomers)		
23%	7.08	FC(F)(F)c1cccc(-c2ncccc2CC(c2cccnc2)c2cccnc2)c1	< 4.52	
9.2%	6.86	Cc1cc(F)ccc1-c1ccccc1C(C#N)C(c1cccnc1)c1cccnc1 (stereo unspecified)		
-3.3%	6.96	OC(c1cccnc1-c1cccc(Cl)c1Cl)C(c1cccnc1)c1cccnc1 (racemic)		Ratio (Homo sapiens): 17
67%	7.48	FC(F)(F)Oc1cccc(-c2ncccc2CC(c2cccnc2)c2cccnc2)c1	4.90	
	6.63	OC(c1cccnc1-c1cc(Cl)cc(Cl)c1)C(c1cccnc1)c1ccccn1 (mixture of isomers)	< 4.52	Ratio (Homo sapiens): 1.1
57%	7.21	Nc1cccc(C(Cc2cccnc2-c2cc(Cl)cc(Cl)c2)c2cccnc2)n1 (stereo unspecified)	4.99	
	6.35	c1cncc(C(Cc2ccccc2-c2ccncc2)c2cccnc2)c1	4.66	
42%	6.24	CS(=O)(=O)Nc1cccc(-c2cc(F)ccc2CC(c2cccnc2)c2cccnc2)c1		
80%	7.59	Clc1ccccc1-c1ncccc1CC(c1cccnc1)c1cccnc1Cl (stereo unspecified)		
77%	6.88	c1cncc(C(Cc2ccccc2-c2cncc3ccccc23)c2cccnc2)c1	4.92	
